pIC50: −log10 of the molar value.
target: Alpha-glucosidase MAL12 (Saccharomyces cerevisiae (strain ATCC 204508 / S288c), UniProt P53341); assay: Glucosidase assay; details: pH 6.8; 37 °C
Experimental: Reaction mixture (100 µL) contained 70 µL 50 mM Na2HPO4 buffer, pH 6.8, 10 µL test compound (0.5 mM), followed by the addition of 10 µL enzyme (0.0234 units). The mixture was pre-incubated for 10 min at 37 °C and pre-read at 400 nm. The reaction was initiated by the addition of 10 µL of 0.5 mM substrate (p-nitrophenyl glucopyranoside) and incubated at 37 °C for 30 min. The absorbance of p-nitrophenol was measured at 400 nm.

Alpha-glucosidase MAL12, sequence (P53341 whole entry): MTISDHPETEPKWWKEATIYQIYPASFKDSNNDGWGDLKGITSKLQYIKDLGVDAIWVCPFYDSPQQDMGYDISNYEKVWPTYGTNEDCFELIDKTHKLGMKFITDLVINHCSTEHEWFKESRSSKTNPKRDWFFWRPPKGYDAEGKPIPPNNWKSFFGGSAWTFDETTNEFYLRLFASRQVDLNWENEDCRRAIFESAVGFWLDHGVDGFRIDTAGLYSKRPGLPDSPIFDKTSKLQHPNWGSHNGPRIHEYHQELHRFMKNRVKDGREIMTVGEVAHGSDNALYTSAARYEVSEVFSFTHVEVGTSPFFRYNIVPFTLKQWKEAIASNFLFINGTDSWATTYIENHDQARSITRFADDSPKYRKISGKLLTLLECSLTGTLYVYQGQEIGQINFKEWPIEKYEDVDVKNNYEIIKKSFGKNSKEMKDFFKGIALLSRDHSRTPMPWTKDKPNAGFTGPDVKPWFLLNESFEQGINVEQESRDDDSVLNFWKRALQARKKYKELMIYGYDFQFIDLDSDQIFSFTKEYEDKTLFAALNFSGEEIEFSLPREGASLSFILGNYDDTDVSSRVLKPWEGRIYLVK

Row | pIC50 | SMILES
1 | 3.67 | CCOC(=O)C1C(C)=NC(=O)NC1c1ccc(Cl)cc1 (stereo unspecified) [Ethyl 4-(4-chlorophenyl)-6-methyl-2-oxo-1,2,3,4-tetrahydropyrimidine-5-carboxylate (4b)]
2 | 3.52 | CCOC(=O)C1C(C)=NC(=O)NC1c1ccc(O)c(OC)c1 (stereo unspecified) [Ethyl 4-(4-hydroxy-3-methoxyphenyl)-6-methyl-2-oxo-1,2,3,4-tetrahydropyrimidine-5-carboxylate (4e)]
3 | 3.84 | CCOC(=O)C1C(C)=NC(=O)NC1c1ccccc1 (stereo unspecified) [Ethyl 6-methyl-2-oxo-4-phenyl-1,2,3,4-tetrahydropyrimidine-5-carboxylate (4a)]
4 | 3.95 | CCOC(=O)C1C(C)=NC(=O)NC1c1ccc(C)cc1 (stereo unspecified) [Ethyl 6-methyl-4-(4-methylphenyl)-2-oxo-1,2,3,4-tetrahydropyrimidine-5-carboxylate (4f)]
5 | 3.90 | CCOC(=O)C1C(C)=NC(=S)NC1c1ccc(C)cc1 (stereo unspecified) [Ethyl 6-methyl-4-(4-methylphenyl)-2-thioxo-1,2,3,4-tetrahydropyrimidine-5-carboxylate (4l)]

Row | SMILES | pIC50
6 | CCOC(=O)[C@H]1[C@@H]2NC(=O)NC1(C)Oc1ccccc12 [(+-)2,6-Methano-4-oxo-3,4,5,6-tetrahydro-2H-[1,3,5]benzoxadiazocines (4d)] | 3.91

Reference: BindingDB's records for doi:10.1016/j.bioorg.2014.05.003 (Comsats Institute of Information Technology, 2014)
